≈ marks a conversion by molar mass, not a printed value. Blank lines part the entries; values can stand above or below the compound they belong to.
Columns and labels:
Escherichia coli [1] = test: Antibacterial activity against Escherichia coli BL21(DE3) assessed as diameter of inhibition zone measured after overnight incubation by agar disc diffusion method; type: functional
Escherichia coli [2] = test: Antibacterial activity against Escherichia coli D22 assessed as diameter of inhibition zone measured after overnight incubation by agar disc diffusion method; type: functional
Escherichia coli [3] = test: Antibacterial activity against Escherichia coli BL21(DE3) measured after 20 hrs by microdilution method; type: functional
Escherichia coli [4] = test: Antibacterial activity against Escherichia coli D22 measured after 20 hrs by microdilution method; type: functional; details: D22, 20 h
[5] = Inhibition of Escherichia coli LpxC C63A mutant using UDP-3-O-[(R)-3-hydroxymyristoyl]-N-acetylglucosamine as substrate measured after 30 mins by fluorescence based microplate assay
Klebsiella pneumoniae = test: Antibacterial activity against Klebsiella pneumoniae assessed as diameter of inhibition zone measured after 24 hrs by agar disc diffusion method; type: functional
Klebsiella oxytoca = test: Antibacterial activity against Klebsiella oxytoca assessed as diameter of inhibition zone measured after 24 hrs by agar disc diffusion method; type: functional
Enterobacter cloacae = test: Antibacterial activity against Enterobacter cloacae assessed as diameter of inhibition zone measured after 24 hrs by agar disc diffusion method; type: functional
Klebsiella aerogenes = test: Antibacterial activity against Enterobacter aerogenes assessed as diameter of inhibition zone measured after 24 hrs by agar disc diffusion method; type: functional
Proteus mirabilis = test: Antibacterial activity against Proteus mirabilis assessed as diameter of inhibition zone measured after 24 hrs by agar disc diffusion method; type: functional
Proteus vulgaris = test: Antibacterial activity against Proteus vulgaris assessed as diameter of inhibition zone measured after 24 hrs by agar disc diffusion method; type: functional
Citrobacter freundii = test: Antibacterial activity against Citrobacter freundii assessed as diameter of inhibition zone measured after 24 hrs by agar disc diffusion method; type: functional
Pseudomonas aeruginosa = test: Antibacterial activity against Pseudomonas aeruginosa assessed as diameter of inhibition zone measured after 24 hrs by agar disc diffusion method; type: functional
[6] = target: 72 kDa type IV collagenase (Homo sapiens, UniProt P08253); test: Inhibition of human MMP2 using (7-methoxycoumarin-4-yl)acetyl-Pro-Leu-Gly-Leu-(3-(2,4-dinitrophenyl)-L-2,3-diamino-propionyl)Ala-Arg-NH2 as substrate preincubated for 30 mins followed by substrate addition and measured by fluorescence assay
Neutrophil collagenase = Neutrophil collagenase (Homo sapiens, UniProt P22894); test: Inhibition of human MMP8 using (7-methoxycoumarin-4-yl)acetyl-Pro-Leu-Gly-Leu-(3-(2,4-dinitrophenyl)-L-2,3-diamino-propionyl)Ala-Arg-NH2 as substrate preincubated for 30 mins followed by substrate addition and measured by fluorescence assay
[7] = target: Matrix metalloproteinase-9 (Homo sapiens, UniProt P14780); test: Inhibition of human MMP9 using (7-methoxycoumarin-4-yl)acetyl-Pro-Leu-Gly-Leu-(3-(2,4-dinitrophenyl)-L-2,3-diamino-propionyl)Ala-Arg-NH2 as substrate preincubated for 30 mins followed by substrate addition and measured by fluorescence assay
Collagenase 3 = Collagenase 3 (Homo sapiens, UniProt P45452); test: Inhibition of human MMP13 using (7-methoxycoumarin-4-yl)acetyl-Pro-Leu-Gly-Leu-(3-(2,4-dinitrophenyl)-L-2,3-diamino-propionyl)Ala-Arg-NH2 as substrate preincubated for 30 mins followed by substrate addition and measured by fluorescence assay

Sequence of 72 kDa type IV collagenase (P08253 whole entry): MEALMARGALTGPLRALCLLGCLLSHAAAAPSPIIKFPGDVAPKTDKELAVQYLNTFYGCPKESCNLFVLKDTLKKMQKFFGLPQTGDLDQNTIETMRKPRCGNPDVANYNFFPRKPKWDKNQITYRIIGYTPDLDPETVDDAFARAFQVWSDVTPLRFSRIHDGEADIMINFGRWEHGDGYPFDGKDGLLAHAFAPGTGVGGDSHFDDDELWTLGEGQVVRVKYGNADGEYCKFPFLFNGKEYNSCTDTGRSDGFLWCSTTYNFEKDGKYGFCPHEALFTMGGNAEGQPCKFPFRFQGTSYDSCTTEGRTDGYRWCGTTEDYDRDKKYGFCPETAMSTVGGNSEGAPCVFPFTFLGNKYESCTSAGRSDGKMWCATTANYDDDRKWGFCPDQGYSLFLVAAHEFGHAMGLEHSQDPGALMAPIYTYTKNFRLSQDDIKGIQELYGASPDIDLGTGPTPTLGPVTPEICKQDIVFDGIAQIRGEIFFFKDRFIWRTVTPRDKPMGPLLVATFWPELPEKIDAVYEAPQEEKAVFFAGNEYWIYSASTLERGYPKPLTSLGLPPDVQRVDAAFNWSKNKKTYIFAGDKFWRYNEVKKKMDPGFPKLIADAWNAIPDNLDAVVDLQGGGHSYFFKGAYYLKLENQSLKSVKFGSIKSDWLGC
Sequence of Matrix metalloproteinase-9 (P14780 whole entry): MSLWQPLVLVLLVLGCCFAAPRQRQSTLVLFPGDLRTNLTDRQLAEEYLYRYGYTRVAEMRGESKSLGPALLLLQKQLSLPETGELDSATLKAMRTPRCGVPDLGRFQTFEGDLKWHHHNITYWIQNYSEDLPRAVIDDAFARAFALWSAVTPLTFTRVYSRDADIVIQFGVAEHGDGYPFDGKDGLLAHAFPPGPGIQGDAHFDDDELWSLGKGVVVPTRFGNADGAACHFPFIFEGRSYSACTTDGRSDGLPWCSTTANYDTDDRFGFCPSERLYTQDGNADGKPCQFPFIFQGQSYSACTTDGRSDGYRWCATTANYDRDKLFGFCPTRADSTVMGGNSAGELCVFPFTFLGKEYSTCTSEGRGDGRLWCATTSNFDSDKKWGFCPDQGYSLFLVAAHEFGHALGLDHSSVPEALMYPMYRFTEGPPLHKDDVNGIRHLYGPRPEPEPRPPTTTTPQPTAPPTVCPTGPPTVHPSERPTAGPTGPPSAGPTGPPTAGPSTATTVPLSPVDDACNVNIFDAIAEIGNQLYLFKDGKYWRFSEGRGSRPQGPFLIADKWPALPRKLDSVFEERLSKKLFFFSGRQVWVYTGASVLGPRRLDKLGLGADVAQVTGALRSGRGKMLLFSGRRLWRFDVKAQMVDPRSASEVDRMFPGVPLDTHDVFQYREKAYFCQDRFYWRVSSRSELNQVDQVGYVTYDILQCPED
Sequence of Neutrophil collagenase (P22894 whole entry): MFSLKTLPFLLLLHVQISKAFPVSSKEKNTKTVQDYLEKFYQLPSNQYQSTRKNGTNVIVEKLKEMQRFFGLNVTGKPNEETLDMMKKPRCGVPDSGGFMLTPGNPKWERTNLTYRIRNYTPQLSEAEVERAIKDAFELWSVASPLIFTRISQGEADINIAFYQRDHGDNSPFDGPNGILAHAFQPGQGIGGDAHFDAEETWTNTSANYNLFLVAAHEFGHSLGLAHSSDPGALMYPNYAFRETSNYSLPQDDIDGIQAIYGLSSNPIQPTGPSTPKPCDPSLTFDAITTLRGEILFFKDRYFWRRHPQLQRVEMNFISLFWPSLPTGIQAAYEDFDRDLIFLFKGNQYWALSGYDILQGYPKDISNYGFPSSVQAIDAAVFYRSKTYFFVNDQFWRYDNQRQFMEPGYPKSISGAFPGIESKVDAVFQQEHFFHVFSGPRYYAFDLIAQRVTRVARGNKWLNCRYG

Compound: O=C(NO)[C@@H]1CCCN1C(=O)c1ccc(C#Cc2ccc(CN3CCCCC3)cc2)cc1
diameter of the inhibition zone (DIZ) (Escherichia coli [1]): 7 mm
diameter of the inhibition zone (DIZ) (Escherichia coli [2]): 18.7 mm
MIC (Escherichia coli [3]): > 256 µM
MIC (Escherichia coli [4]): 128 µM (≈ 55.2 µg/mL)
IC50 [5]: > 200 µM
Ki [5]: > 27.6 µM
diameter of the inhibition zone (DIZ) (Klebsiella pneumoniae): 13 mm
diameter of the inhibition zone (DIZ) (Klebsiella oxytoca): 9 mm
diameter of the inhibition zone (DIZ) (Enterobacter cloacae): 10 mm
diameter of the inhibition zone (DIZ) (Klebsiella aerogenes): 12 mm
diameter of the inhibition zone (DIZ) (Proteus mirabilis): 10 mm
diameter of the inhibition zone (DIZ) (Proteus vulgaris): 11 mm
diameter of the inhibition zone (DIZ) (Citrobacter freundii): 8 mm
diameter of the inhibition zone (DIZ) (Pseudomonas aeruginosa): <6 mm

Compound: O=C(NO)[C@@H]1C[C@H](O)CN1C(=O)c1ccc(C#Cc2ccc(CN3CCCCC3)cc2)cc1
diameter of the inhibition zone (DIZ) (Escherichia coli [1]): <6 mm
diameter of the inhibition zone (DIZ) (Escherichia coli [2]): 19.2 mm
MIC (Escherichia coli [3]): > 256 µM
MIC (Escherichia coli [4]): 32 µM (≈ 14.3 µg/mL)
IC50 [5]: 54.5 µM
Ki [5]: 7.5 µM
diameter of the inhibition zone (DIZ) (Klebsiella pneumoniae): 9 mm
diameter of the inhibition zone (DIZ) (Klebsiella oxytoca): 9 mm
diameter of the inhibition zone (DIZ) (Enterobacter cloacae): <6 mm
diameter of the inhibition zone (DIZ) (Klebsiella aerogenes): 10 mm
diameter of the inhibition zone (DIZ) (Proteus mirabilis): 11 mm
diameter of the inhibition zone (DIZ) (Proteus vulgaris): 13 mm
diameter of the inhibition zone (DIZ) (Citrobacter freundii): 9 mm
diameter of the inhibition zone (DIZ) (Pseudomonas aeruginosa): <6 mm

Compound: O=C(NO)[C@@H]1C[C@H](O)CN1C(=O)c1ccc(C#Cc2ccccc2)cc1
diameter of the inhibition zone (DIZ) (Escherichia coli [1]): <6 mm
diameter of the inhibition zone (DIZ) (Escherichia coli [2]): 14.3 mm
MIC (Escherichia coli [3]): > 256 µM
MIC (Escherichia coli [4]): 64 µM (≈ 22.4 µg/mL)
IC50 [5]: > 200 µM
Ki [5]: > 27.6 µM
diameter of the inhibition zone (DIZ) (Klebsiella pneumoniae): <6 mm
diameter of the inhibition zone (DIZ) (Klebsiella oxytoca): 7 mm
diameter of the inhibition zone (DIZ) (Enterobacter cloacae): <6 mm
diameter of the inhibition zone (DIZ) (Klebsiella aerogenes): <6 mm
diameter of the inhibition zone (DIZ) (Proteus mirabilis): 7 mm
diameter of the inhibition zone (DIZ) (Proteus vulgaris): 7 mm
diameter of the inhibition zone (DIZ) (Citrobacter freundii): 7 mm
diameter of the inhibition zone (DIZ) (Pseudomonas aeruginosa): <6 mm

Continued, in another order:

MIC (Escherichia coli [3]): > 256 µM
MIC (Escherichia coli [4]): 64 µM (≈ 27.7 µg/mL)
IC50 [5]: > 200 µM
Compound: O=C(NO)[C@@H]1C[C@H](O)CN1C(=O)c1ccc(C#Cc2ccc(CN3CCCC3)cc2)cc1
diameter of the inhibition zone (DIZ) (Escherichia coli [1]): <6 mm
diameter of the inhibition zone (DIZ) (Escherichia coli [2]): 14.3 mm
Ki [5]: > 27.6 µM
diameter of the inhibition zone (DIZ) (Klebsiella pneumoniae): <6 mm
diameter of the inhibition zone (DIZ) (Klebsiella oxytoca): <6 mm
diameter of the inhibition zone (DIZ) (Enterobacter cloacae): <6 mm
diameter of the inhibition zone (DIZ) (Klebsiella aerogenes): <6 mm
diameter of the inhibition zone (DIZ) (Proteus mirabilis): <6 mm
diameter of the inhibition zone (DIZ) (Proteus vulgaris): <6 mm
diameter of the inhibition zone (DIZ) (Citrobacter freundii): <6 mm
diameter of the inhibition zone (DIZ) (Pseudomonas aeruginosa): <6 mm

MIC (Escherichia coli [3]): 64 µM (≈ 27.7 µg/mL)
MIC (Escherichia coli [4]): 16 µM (≈ 6.94 µg/mL)
IC50 [5]: 45.6 µM
IC50 [6]: 0.57 µM
IC50 (Neutrophil collagenase): 2 µM
IC50 [7]: 4 µM
IC50 (Collagenase 3): 0.28 µM
Compound: O=C(NO)[C@@H]1CCCN1C(=O)c1ccc(C#Cc2ccc(CN3CCOCC3)cc2)cc1
diameter of the inhibition zone (DIZ) (Escherichia coli [1]): 13.2 mm
diameter of the inhibition zone (DIZ) (Escherichia coli [2]): 20 mm
Ki [5]: 6.3 µM
diameter of the inhibition zone (DIZ) (Klebsiella pneumoniae): 15 mm
diameter of the inhibition zone (DIZ) (Klebsiella oxytoca): 9 mm
diameter of the inhibition zone (DIZ) (Enterobacter cloacae): 13 mm
diameter of the inhibition zone (DIZ) (Klebsiella aerogenes): 15 mm
diameter of the inhibition zone (DIZ) (Proteus mirabilis): 12 mm
diameter of the inhibition zone (DIZ) (Proteus vulgaris): 9 mm
diameter of the inhibition zone (DIZ) (Citrobacter freundii): 12 mm
diameter of the inhibition zone (DIZ) (Pseudomonas aeruginosa): <6 mm

MIC (Escherichia coli [3]): 128 µM (≈ 57.5 µg/mL)
MIC (Escherichia coli [4]): 8 µM (≈ 3.6 µg/mL)
IC50 [5]: 45.2 µM
Compound: O=C(NO)[C@@H]1CCCN1C(=O)c1ccc(C#Cc2ccc(CN3CCSCC3)cc2)cc1
diameter of the inhibition zone (DIZ) (Escherichia coli [1]): 12.7 mm
diameter of the inhibition zone (DIZ) (Escherichia coli [2]): 18 mm
Ki [5]: 6.2 µM
diameter of the inhibition zone (DIZ) (Klebsiella pneumoniae): 18 mm
diameter of the inhibition zone (DIZ) (Klebsiella oxytoca): 11 mm
diameter of the inhibition zone (DIZ) (Enterobacter cloacae): 14 mm
diameter of the inhibition zone (DIZ) (Klebsiella aerogenes): 14 mm
diameter of the inhibition zone (DIZ) (Proteus mirabilis): 12 mm
diameter of the inhibition zone (DIZ) (Proteus vulgaris): 10 mm
diameter of the inhibition zone (DIZ) (Citrobacter freundii): 14 mm
diameter of the inhibition zone (DIZ) (Pseudomonas aeruginosa): <6 mm

MIC (Escherichia coli [3]): 64 µM (≈ 29.7 µg/mL)
MIC (Escherichia coli [4]): 4 µM (≈ 1.85 µg/mL)
IC50 [5]: 44 µM
Compound: O=C(NO)[C@@H]1C[C@H](O)CN1C(=O)c1ccc(C#Cc2ccc(CN3CCC(O)CC3)cc2)cc1
diameter of the inhibition zone (DIZ) (Escherichia coli [1]): 15.7 mm
diameter of the inhibition zone (DIZ) (Escherichia coli [2]): 23.7 mm
Ki [5]: 6.1 µM
diameter of the inhibition zone (DIZ) (Klebsiella pneumoniae): <6 mm
diameter of the inhibition zone (DIZ) (Klebsiella oxytoca): <6 mm
diameter of the inhibition zone (DIZ) (Enterobacter cloacae): <6 mm
diameter of the inhibition zone (DIZ) (Klebsiella aerogenes): 9 mm
diameter of the inhibition zone (DIZ) (Proteus mirabilis): 11 mm
diameter of the inhibition zone (DIZ) (Proteus vulgaris): <6 mm
diameter of the inhibition zone (DIZ) (Citrobacter freundii): <6 mm
diameter of the inhibition zone (DIZ) (Pseudomonas aeruginosa): <6 mm

Source: ChEMBL document CHEMBL4392848, “Proline-based hydroxamates targeting the zinc-dependent deacetylase LpxC: Synthesis, antibacterial properties, and docking studies” (Bioorg Med Chem, 2019)
